Where “and” joins values, the source holds several entries; their conditions need not be identical. Equal entries are not always repeated. Toxic doses and inconclusive results are not listed. Rule for the calls: active = survival T/C of 150% or more; inactive = T/C below 125% in these data.
Test system: CD2F1 mice, L1210 leukemia ip, survival T/C
Assay: NCI In Vivo Anticancer Drug Screen. Data for tumor model L1210 Leukemia (intraperitoneal) in CD2F1 (CDF1) mice
Conditions: higher = longer survival
Summary of the method: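 Tumor-bearing mice (transplanted tumor) were split into treated and vehicle control groups, and the measured endpoint of each treated group was divided by that of its vehicle controls.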

[1] = endpoint: mean survival time, dose: 100.0 mg/kg/injection, schedule: Q04DX003 (ip), vehicle: saline with Tween-80
[2] = endpoint: mean survival time, dose: 200.0 mg/kg/injection, schedule: Q04DX003 (ip), vehicle: saline with Tween-80
[3] = endpoint: mean survival time, dose: 400.0 mg/kg/injection, schedule: Q04DX003 (ip), vehicle: saline with Tween-80
[4] = endpoint: median survival time, dose: 12.5 mg/kg/injection, schedule: Q01DX005 (ip), vehicle: saline
[5] = endpoint: median survival time, dose: 25.0 mg/kg/injection, schedule: Q01DX005 (ip), vehicle: saline
[6] = endpoint: median survival time, dose: 50.0 mg/kg/injection, schedule: Q01DX005 (ip), vehicle: saline
[7] = endpoint: median survival time, dose: 100.0 mg/kg/injection, schedule: Q01DX005 (ip), vehicle: saline
[8] = endpoint: median survival time, dose: 200.0 mg/kg/injection, schedule: Q01DX005 (ip), vehicle: saline
[9] = endpoint: mean survival time, dose: 100.0 mg/kg/injection, schedule: Q01DX001 (ip), vehicle: saline
[10] = endpoint: mean survival time, dose: 200.0 mg/kg/injection, schedule: Q01DX001 (ip), vehicle: saline
[11] = endpoint: mean survival time, dose: 400.0 mg/kg/injection, schedule: Q01DX001 (ip), vehicle: saline
[12] = endpoint: mean survival time, dose: 100.0 mg/kg/injection, schedule: Q04DX002 (ip), vehicle: saline with Tween-80
[13] = endpoint: mean survival time, dose: 200.0 mg/kg/injection, schedule: Q04DX002 (ip), vehicle: saline with Tween-80
[14] = endpoint: mean survival time, dose: 100.0 mg/kg/injection, schedule: Q01DX001 (ip), vehicle: saline with Tween-80
[15] = endpoint: mean survival time, dose: 100.0 mg/kg/injection, schedule: Q01DX009 (ip), vehicle: saline with Tween-80
[16] = endpoint: mean survival time, dose: 200.0 mg/kg/injection, schedule: Q01DX009 (ip), vehicle: saline with Tween-80
[17] = endpoint: mean survival time, dose: 400.0 mg/kg/injection, schedule: Q01DX009 (ip), vehicle: saline with Tween-80

Measured: T/C

BrCCN(CCBr)c1ccc2c3c(cccc13)-c1ccccc1-2
inactive: endpoint: mean survival time, dose: 1.5 mg/kg/injection, schedule: Q01DX Z (ip), vehicle: saline 113 % of control | endpoint: mean survival time, dose: 2.0 mg/kg/injection, schedule: Q01DX Z (ip), vehicle: saline 98 % of control | endpoint: mean survival time, dose: 3.2 mg/kg/injection, schedule: Q01DX Z (ip), vehicle: saline 110 % of control | endpoint: mean survival time, dose: 5.0 mg/kg/injection, schedule: Q01DX Z (ip), vehicle: saline 121 % of control

Cc1ccc(S(=O)(=O)N2CCC(C(=O)O)(c3ccccc3)CC2)cc1
inactive: [1] 113 % of control | [2] 98 % of control | [3] 95 % of control

CSc1ncnc2c1ccn2C1OC(CO)C(O)C1O (stereo not drawn)
inactive: [4] 106 % of control | [5] 105 % of control | [6] 102 % of control | [7] 103 % of control | [8] 94 % of control

CC(=O)C(C)(c1ccccc1)N(Cc1ccccc1)C(=O)c1ccccc1 (stereo not drawn)
inactive: [9] 96 % of control | [10] 98 % of control | [11] 96 % of control

CC1NC(=O)OC1(C)C(C)(C)C (stereo not drawn)
inactive: endpoint: mean survival time, dose: 5.0 mg/kg/injection, schedule: Q01DX009 (ip), vehicle: saline with Tween-80 94 % of control | endpoint: mean survival time, dose: 10.0 mg/kg/injection, schedule: Q01DX009 (ip), vehicle: saline with Tween-80 104 % of control | endpoint: mean survival time, dose: 20.0 mg/kg/injection, schedule: Q01DX009 (ip), vehicle: saline with Tween-80 102 % of control

C[n+]1ccncc1
inactive: [9] 102 % of control | [10] 102 % of control | [11] 104 % of control

O=C1Nc2ccccc2/C1=C/c1c[nH]c2ccccc12
inactive: endpoint: mean survival time, dose: 50.0 mg/kg/injection, schedule: Q04DX002 (ip), vehicle: saline with Tween-80 103 % of control | [12] 90 % of control | [13] 107 % of control

CCOC(OCC)/C(C)=N/[N+](C)(C)C
inactive: endpoint: mean survival time, dose: 75.0 mg/kg/injection, schedule: Q01DX001 (ip), vehicle: saline 107 % of control | endpoint: mean survival time, dose: 150.0 mg/kg/injection, schedule: Q01DX001 (ip), vehicle: saline 98 % of control

NP(=O)(Oc1ccc([N+](=O)[O-])cc1)Oc1ccc([N+](=O)[O-])cc1
inactive: endpoint: mean survival time, dose: 62.5 mg/kg/injection, schedule: Q01DX001 (ip), vehicle: other 97 % of control | endpoint: mean survival time, dose: 125.0 mg/kg/injection, schedule: Q01DX001 (ip), vehicle: other 93 % of control | endpoint: mean survival time, dose: 250.0 mg/kg/injection, schedule: Q01DX001 (ip), vehicle: other 97 % of control | endpoint: mean survival time, dose: 500.0 mg/kg/injection, schedule: Q01DX001 (ip), vehicle: other 86 % of control

CCOC(=O)c1ccc(OC(=O)Nc2cc(C)ccc2C)cc1
inactive: endpoint: mean survival time, dose: 50.0 mg/kg/injection, schedule: Q01DX009 (ip), vehicle: saline with Tween-80 100 % of control | [14] 103 % of control | [12] 98 % of control and 101 % of control | [1] 97 % of control | endpoint: mean survival time, dose: 200.0 mg/kg/injection, schedule: Q01DX001 (ip), vehicle: saline with Tween-80 100 % of control | [13] 113 % of control and 109 % of control | [2] 92 % of control | endpoint: mean survival time, dose: 400.0 mg/kg/injection, schedule: Q01DX001 (ip), vehicle: saline with Tween-80 102 % of control | endpoint: mean survival time, dose: 400.0 mg/kg/injection, schedule: Q04DX002 (ip), vehicle: saline with Tween-80 114 % of control and 102 % of control | [3] 94 % of control

Cc1ncnc2c1ncn2C1OC(CO)C(O)C1O (stereo not drawn)
inactive: endpoint: mean survival time, dose: 0.25 mg/kg/injection, schedule: Q01DX005 (ip), vehicle: saline 113 % of control | endpoint: mean survival time, dose: 0.5 mg/kg/injection, schedule: Q01DX005 (ip), vehicle: saline 112 % of control | endpoint: mean survival time, dose: 1.0 mg/kg/injection, schedule: Q01DX005 (ip), vehicle: saline 124 % of control | endpoint: mean survival time, dose: 4.0 mg/kg/injection, schedule: Q01DX005 (ip), vehicle: saline 113 % of control

Clc1ccc(C2SC=Cc3ccccc32)cc1 (stereo not drawn)
inactive: endpoint: median survival time, dose: 25.0 mg/kg/injection, schedule: Q01DX009 (ip), vehicle: Klucel (hydroxypropylcellulose) (HPC) 110 % of control | endpoint: median survival time, dose: 50.0 mg/kg/injection, schedule: Q01DX009 (ip), vehicle: Klucel (hydroxypropylcellulose) (HPC) 104 % of control | endpoint: median survival time, dose: 100.0 mg/kg/injection, schedule: Q01DX009 (ip), vehicle: Klucel (hydroxypropylcellulose) (HPC) 109 % of control | endpoint: median survival time, dose: 200.0 mg/kg/injection, schedule: Q01DX009 (ip), vehicle: Klucel (hydroxypropylcellulose) (HPC) 104 % of control

COc1ccc(C(=Nc2ccc(C)cc2)c2ccc([N+](=O)[O-])cc2)cc1
inactive: [15] 94 % of control | [1] 98 % of control | [16] 98 % of control | [2] 98 % of control | [17] 96 % of control | [3] 98 % of control

Nc1ncnc2c1nc(N1CCCC1)n2C1OC(CO)C(O)C1O (stereo not drawn)
inactive: endpoint: mean survival time, dose: 12.5 mg/kg/injection, schedule: Q01DX005 (ip), vehicle: distilled water + Tween-80 104 % of control and 93 % of control | endpoint: mean survival time, dose: 25.0 mg/kg/injection, schedule: Q01DX005 (ip), vehicle: distilled water + Tween-80 104 % of control and 98 % of control | endpoint: mean survival time, dose: 50.0 mg/kg/injection, schedule: Q01DX005 (ip), vehicle: distilled water + Tween-80 102 % of control and 100 % of control | endpoint: mean survival time, dose: 100.0 mg/kg/injection, schedule: Q01DX005 (ip), vehicle: distilled water + Tween-80 100 % of control and 90 % of control | endpoint: mean survival time, dose: 200.0 mg/kg/injection, schedule: Q01DX005 (ip), vehicle: distilled water + Tween-80 105 % of control and 97 % of control

O=C(O)c1cccc2ccc(F)cc12
inactive: endpoint: median survival time, dose: 50.0 mg/kg/injection, schedule: Q04DX002 (ip), vehicle: saline with Tween-80 100 % of control | endpoint: median survival time, dose: 100.0 mg/kg/injection, schedule: Q04DX002 (ip), vehicle: saline with Tween-80 100 % of control | endpoint: median survival time, dose: 200.0 mg/kg/injection, schedule: Q04DX002 (ip), vehicle: saline with Tween-80 100 % of control | endpoint: median survival time, dose: 400.0 mg/kg/injection, schedule: Q04DX002 (ip), vehicle: saline with Tween-80 88 % of control

C#CC(OC(=O)NC(CCSC)C(=O)OC)(c1ccccc1)c1ccccc1 (stereo not drawn)
inactive: endpoint: mean survival time, dose: 25.0 mg/kg/injection, schedule: Q01DX001 (ip), vehicle: saline with Tween-80 102 % of control | endpoint: mean survival time, dose: 50.0 mg/kg/injection, schedule: Q01DX001 (ip), vehicle: saline with Tween-80 94 % of control | [14] 102 % of control

O=C(/C(=N/N=C\c1ccc([N+](=O)[O-])cc1)c1ccccc1)c1ccccc1
inactive: [15] 101 % of control | endpoint: mean survival time, dose: 100.0 mg/kg/injection, schedule: Q01DX009 (ip), vehicle: saline 109 % of control | [16] 95 % of control | endpoint: mean survival time, dose: 200.0 mg/kg/injection, schedule: Q01DX009 (ip), vehicle: saline 109 % of control | [17] 95 % of control | endpoint: mean survival time, dose: 400.0 mg/kg/injection, schedule: Q01DX009 (ip), vehicle: saline 104 % of control

COc1ccn(C2OC(=O)C(C)(C)C2=O)c(=O)n1 (stereo not drawn)
inactive: [4] 101 % of control | [5] 100 % of control | [6] 101 % of control | [7] 101 % of control | [8] 100 % of control

O=C(NNC(=O)OCC(Cl)(Cl)Cl)OCC(Cl)(Cl)Cl
inactive: [1] 102 % of control

O=C(O)C1OC(Sc2ncnc3nc[nH]c23)C(O)C(O)C1O (stereo not drawn)
inactive: [5] 98 % of control | [6] 108 % of control | [7] 109 % of control | [8] 120 % of control and 112 % of control | endpoint: median survival time, dose: 400.0 mg/kg/injection, schedule: Q01DX005 (ip), vehicle: saline 115 % of control

Cc1c(O)c2c(c(O)c1Cc1cccc(CN)c1)C(=O)c1ccccc1C2=O
inactive: endpoint: mean survival time, dose: 1.56 mg/kg/injection, schedule: Q01DX009 (ip), vehicle: other 101 % of control | endpoint: mean survival time, dose: 3.13 mg/kg/injection, schedule: Q01DX009 (ip), vehicle: other 93 % of control | endpoint: mean survival time, dose: 6.25 mg/kg/injection, schedule: Q01DX009 (ip), vehicle: other 87 % of control | endpoint: mean survival time, dose: 12.5 mg/kg/injection, schedule: Q01DX009 (ip), vehicle: other 90 % of control | endpoint: mean survival time, dose: 25.0 mg/kg/injection, schedule: Q01DX009 (ip), vehicle: other 94 % of control
